Patent US20240307392A1, “ERK1/2 AND EGFR INHIBITORS COMBINATION THERAPY” (Erasca, Inc., priority 2021, published 2024)

Experiments:
[1] = Body weight loss / DietGel supply in CR0004 PDX study; format: in vivo, Balb/c nude mice; settings: Compound 1 30 mg/kg/dose BID + encorafenib 90 mg/kg QD + cetuximab 30 mg/kg Q3D
Method: Female Balb/c nude mice were purchased from the Beijing Anikeeper Biotech Co., Ltd (Beijing. China). Mice were between 9-11 weeks of age at the time of implantation. Mice were hosted at a special pathogen-free (SPF) environment of the vivarium facility and acclimated to their new environment for at least 3 days prior to initiation of any experiments according to IACUC protocol. All procedures related to animal handling, care, and treatment in this study were performed according to guidelines approved by the Institutional Animal Care and Use Committee (IACUC) of Crown Bioscience (Beijing. China). During the study, the care and use of animals were conducted in accordance with the regulations of the Association for Assessment and Accreditation of Laboratory Animal Care (AAALAC). In addition, all portions of this study performed at Crown Bioscience (Beijing, China) adhered to the study protocols approved by the study director and applicable standard operating procedures (SOPs).
Treatment started on the day of randomization. The treatment start day was denoted as treatment day 0. Mice were dosed by administration of vehicle control solution. Compound 1 at 30 mg/kg/dose BID, p.o., encorafenib at 90 mg/kg QD, p.o., and cetuximab at 30 mg/kg Q3D, i.p, as monotherapies. […]

[2] = Body weight loss / DietGel supply in CRC1011 PDX study; format: in vivo, Balb/c nude mice
Method: Female Balb/c nude mice were purchased from the Beijing Vital River Laboratory Animal Technology Co., Ltd. Mice were hosted in a special pathogen-free (SPF) environment of the vivarium facility and acclimated to their new environment for at least 3 days prior to initiation of any experiments. Mice were between 6-8 weeks of age at the time of implantation. All procedures related to animal handling, care, and treatment in this study were performed according to the protocols and guidelines approved by the Institutional Animal Care and Use Committee (IACUC) of GenenDesign. Animal facility and program is operated under the standard of Guide for the Care and Use of Laboratory Animals (NRC, 2011) and accredited by the Association for Assessment and Accreditation of Laboratory Animal Care (AAALAC). Specifically, all portions of this study performed at GenenDesign adhered to the study protocols reviewed and approved by IACUC and applicable standard operating procedures (SOPs).
Treatment started on the day after randomization. The treatment start day was denoted as treatment day 0. Mice were dosed by administration of vehicle control solution. Compound 1 at 30 mg/kg/dose BID, p.o., and encorafenib at 90 mg/kg QD, p.o. as monotherapies. An additional group received combination treatment of Compound 1 at 30 mg/kg/dose BID with encorafenib at 90 mg/kg QD. The dosing volumes for Compound 1 and encorafenib were 5 mL/kg and interval of BID regimen was 8 hours. In the combination group of Compound 1 with encorafenib, encorafenib was dosed first and the first dose of Compound 1 BID was given one hour later. In addition to regular food and water supply. DietGel was added in cages where at least two mice started showing >10% BWL. Per this practice. mice in the Compound 1 at 30 mg/kg/dose BID monotherapy group and the Compound 1 at 30 mg/kg/dose BID with encorafenib at 90 mg/kg QD combination group were supplied with DietGel food starting on treatment day […], respectively, and continuing through the remaining study period. […]

Cc1cnc(NC2CCOCC2)nc1-n1cnc(C(=O)N[C@H](CN)c2cc(F)cc(Cl)c2)c1 [Compound 1, (S)-N-(2-amino-1-(3-chloro-5-fluorophenyl)ethyl)-1(5-methyl-2-((tetrahydro-2H-pyran-4-yl)amino)pyrimidin-4-yl)-1H-imidazole-4-carboxamide]
start of DietGel supply (added where at least two mice started showing BWL >10%) [1]: 21 treatment day
start of DietGel supply (added where at least two mice started showing >10% BWL) ([2]; Compound 1 30 mg/kg/dose BID + encorafenib 90 mg/kg QD): 12 treatment day
start of DietGel supply (added where at least two mice started showing >10% BWL) ([2]; Compound 1 30 mg/kg/dose BID + encorafenib 90 mg/kg QD + cetuximab 30 mg/kg Q3D): 9 treatment day
start of DietGel supply (added where at least two mice started showing >10% BWL) ([2]; Compound 1 30 mg/kg/dose BID monotherapy): 12 treatment day
